Reference: patent US5429774A, “Benzopyran compounds” (Transitions Optical, Inc., priority 1994, dated 1995)

Assay: photochromic response on an optical bench in ethyl cellulose resin (lambda max, sensitivity, saturation optical density, bleach rate)
Format: physicochemical
Conditions: for Δ OD @ SAT (saturation optical density): UV exposure 15 minutes; for Δ OD @ SAT (saturation optical density) / Sensitivity Δ OD/MIN / Bleach rate T 1/2: ethyl cellulose resin; for Lambda max Band A / Lambda max Band B: activated (colored) form, in ethyl cellulose resin; for Sensitivity Δ OD/MIN: first five (5) seconds of UV exposure, expressed on a per minute basis, 75° F. (23.9° C.); for Bleach rate T 1/2: time to one half the highest absorbance at room temperature (72° F., 22.2° C.) after removal of activating light; for sensitivity versus Comparative Examples (in words): comparison of Table 1 results
Method: The photochromic compounds prepared in the Examples and the Comparative Examples were incorporated into an ethyl cellulose resin by the following procedure. About 30 milligrams of the photochromic compound was added to 2.0 grams of a 10 weight percent ethyl cellulose solution in toluene. The photochromic compound was dissolved by warming and stirring on a steam bath. Approximately 2.0 grams of the resultant solution was deposited on the edge of a 75 by 25 millimeter (mm) glass slide. Using a draw down bar, a 0.2 mm layer of photochromic resin solution was placed evenly on the slide and permitted to dry.
The photochromic test samples prepared in Part A were tested for photochromic response rates on an optical bench. Prior to testing on the optical bench, the photochromic test samples were exposed to 365 nanometer (nm) ultraviolet light for about 15 minutes to activate the photochromic compounds and then placed into a 76° C. oven for about 15 minutes to bleach or inactivate the photochromic compounds. The test samples were then cooled to room temperature, exposed to fluorescent room lighting for at least 2 hours and then kept covered for at least 2 hours prior to testing on an optical bench maintained at 75° F. (23.9° C.).
The optical bench comprises a 150 watt Xenon arc lamp, a tungsten lamp, power supplies for both lamps, condensing lenses as needed to maintain collimated light beams from both lamps, a remote controlled shutter, a copper sulfate bath acting as a heat sink for the arc lamp, a Schott WG-320 nm cut-off filter which removes short wavelength radiation, neutral density filter(s), a sample holder in which the sample to be tested is inserted, a photopic filter, light detector, and radiometer assembly, a strip chart recorder, and a means for maintaining the alignment of the aforestated components during testing.
Change in optical density (ΔOD) of a sample was determined by inserting a photochromic test sample in the bleached state into the sample holder, adjusting the transmittance scale to 100%, opening the shutter from the Xenon lamp to provide ultraviolet radiation to change the sample from the bleached state to an activated (darkened) state, measuring the transmittance through the sample. The transmittance was measured by directing a beam of light from the tungsten lamp at a small angle normal to the surface of the sample, through the sample, and to a photopic filter, light detector and radiometer assembly. The photopic filter passes wavelengths such that the detector mimics the response of the human eye and produces output signals that are processed by the radiometer. The change in optical density was calculated according to the formula Δ OD=log(100/% Ta) where % Ta is the percent transmittance in the activated state and the logarithm is to the base 10.
The Δ OD/Min, which represents the sensitivity of the photochromic compound's response to UV light, was measured over the first five (5) seconds of UV exposure, then expressed on a per minute basis. The saturation optical density (OD) was taken under identical conditions as the Δ OD/Min, except UV exposure was continued for 15 minutes. The lambda max value, which is the maximum absorption of the activated (colored) form of the photochromic compound in ethyl cellulose resin, may occur at one or two wavelengths reported as Band A and Band B in Table 1. The Bleach Rate T 1/2 is the time interval in seconds for the absorbance of the activated form of the benzopyran in the test sample to reach one half the highest absorbance at room temperature (72° F., 22.2° C.) after removal of the source of activating light.

Compound | Δ OD @ SAT (saturation optical density) | Lambda max Band A | Lambda max Band B | Sensitivity Δ OD/MIN [OD/MIN] | Bleach rate T 1/2 [min] | sensitivity versus Comparative Examples (in words)
C1=CC(c2ccccc2)(c2csc3ccccc23)Oc2ccc3oc4ccccc4c3c21 (stereo not drawn) [Example 9, 3-phenyl-3-(benzothiophen-3-yl)-3H-benzo(b)furo[3,2-f]-1-benzopyran] | 0.18 | 444 | 515 | 0.22 | 2.97 | 
C1=CC(c2ccccc2)(c2cc3ccccc3o2)Oc2ccc3oc4ccccc4c3c21 (stereo not drawn) [Example 4, 3-phenyl-3-(benzofur-2-yl)-3H-benzo(b)furo[3,2-f]-1-benzopyran] | 0.34 | 453 | 482 | 0.26 | 5.18 | 
C1=CC(c2ccccc2)(c2ccccc2)Oc2ccc3oc4ccccc4c3c21 [Comparative Example 2, 3,3-diphenyl-(3H)-benzo(b)furo[3,2-f]-1-benzopyran, reference compound] | 0.18 | 430 | 522 | 0.42 | 1.42 | 
C1=CC(c2ccccc2)(c2cc3ccccc3o2)Oc2ccc3ccccc3c21 (stereo not drawn) [Example 1, 3-phenyl-3-(benzofur-2-yl)-3H-naphtho[2,1-b]pyran] | 0.95 | 467 |  | 1.15 | 5.75 | greater than Comparative Examples 1 and 2
C1=CC(c2ccccc2)(c2cc3ccccc3s2)Oc2ccc3oc4ccccc4c3c21 (stereo not drawn) [Example 8, 3-phenyl-3-(benzothiophen-2-yl)-3H-benzo(b)furo[3,2-f]-1-benzopyran] | 0.23 | 476 | 545 | 0.25 | 3.77 | 
COc1ccccc1C1(c2cc3ccccc3o2)C=Cc2c(ccc3sc4ccccc4c23)O1 (stereo not drawn) [Example 10, 3-(2-methoxyphenyl)-3-(benzofur-2-yl)-3H-benzo(b)thieno[3,2-f]-1-benzopyran] | 0.98 | 482 | 532 | 0.66 | > 20 | greater than Comparative Example 2
COc1ccccc1C1(c2cc3ccccc3o2)C=Cc2cc3oc4ccccc4c3cc2O1 (stereo not drawn) [Example 6, 2-(2-methoxyphenyl)-2-(benzofur-2-yl)-2H-benzo(b)furo[2,3-g]-benzopyran] | 0.86 | 448 | 507 | 0.49 | > 20 | greater than Comparative Example 2
3-(2-fluorophenyl)-3-(benzofur-2-yl)-3H-benzo(b)thieno[3,2-f]-1-benzopyran [Example 7] | 0.27 | 482 |  | 0.27 | 10.3 | 
Fc1ccccc1C1(c2cc3ccccc3o2)C=Cc2c(ccc3ccccc23)O1 (stereo not drawn) [Example 2, 3-(2-fluorophenyl)-3-(benzofur-2-yl)-3H-naphtho[2,1-b]pyran] | 0.84 | 462 |  | 0.59 | > 30 | greater than Comparative Example 2
C1=CC(c2ccccc2)(c2csc3ccccc23)Oc2ccc3ccccc3c21 (stereo not drawn) [Example 5, 3-phenyl-3-(benzothiophen-3-yl)-3H-naphtho[2,1-b]pyran] | 0.34 | 440 |  | 0.62 | 1.55 | greater than Comparative Example 2
C1=CC(c2ccccc2)(c2ccccc2)Oc2ccc3ccccc3c21 [Comparative Example 1, 3,3-diphenyl-3H-naphtho [2,1-b]pyran, reference compound] | 0.31 | 432 |  | 0.87 | 0.533 | 
C1=CC(c2ccccc2)(c2cc3ccccc3s2)Oc2ccc3ccccc3c21 (stereo not drawn) [Example 3, 3-phenyl-3-(benzothiophen-2-yl)-3H-naphtho[2,1-b]pyran] | 0.52 | 460 |  | 0.76 | 2.03 | greater than Comparative Example 2
